Test results: US20140017223A1, “Pharmaceutical Compositions Comprising A Pancreatic Enzyme Preparation With Viral Infectivity Reduced Below A Significant Level And Methods Of Preparing And Using The Same” (Aptalis Pharma Canada Inc., priority 2010, published 2014)
“And” between values parts separate entries of the source, which are not always exact repeats. Identical values can stand only once.

Columns and labels:
PPV [1] = assay: Inactivation of PPV by BPL (30 min, 25° C.), BPL then inactivated with sodium thiosulfate (Example 9); assay type: cell-based, porcine parvovirus (PPV); conditions: thiosulfate quench
Experimental: 4.5 g pancrelipase (PEP) powder was dissolved in 44 ml ice cold 100 mM Tris (pH=8.3) by frequently mixing a 50-ml plastic tube that was kept on ice most of the time except when shaking. The dissolved sample was spiked with 1 ml (2×0.5 ml) PPV stock (prepared at the Institut National de la Recherche Scientifique, Québec, Canada using standard protocols (Arella et al., Physicichemical properties, production, and purification of parvoviruses. 1990, In Tijssen, P. (ed.), CRC handbook of parvoviruses. Boca Raton, Fla.: CRC Press, 11-30)) 10^7 FFID50/ml; see Example 8 and Table 8) and was mixed for another 10 minutes.
Three aliquots of the dissolved pancrelipase were transferred into tubes (A-C) and kept on ice while (A) no BPL—the control), (B) (0.4 vol % BPL), or (C) (0.8 vol % BPL) was added to them. After a brief mixing by a vortex machine, the tubes were incubated for 30 minutes at 25° C. At the end of the incubation, the tubes were transferred on to ice and immediately four aliquots were transferred from each experimental condition into new tubes (a-d). These tubes were placed into the mixture of acetone/dry ice for fast freezing. Later, the samples were stored at −80° C.
From the remaining solutions, aliquots from each experiment (using triplicates) were diluted 100 times in cell culture medium containing sodium thiosulfate and supplemented with traces of chloroform. Samples were briefly mixed and kept at 4° C. for at least 6 hours before further dilution for the FFID50 infectivity determination. See Example 9.
The experiment above was repeated two more times (altogether: experiments 1-3).
Table 9 presents the result of the inactivation of PPV by BPL for 30 min at 25° C. and subsequent inactivation of the BPL by incubating the BPL-containing PEP solutions with sodium thiosulfate for at least 6 hours at 4° C. As discussed above, three independent experiments with BPL inactivation after PPV spiking were followed by inactivation of BPL by sodium thiosulfate (3 parallels for each experiment).

PPV [2] = assay: Inactivation of PPV by BPL in higher concentration of PEP (200 mg/ml), time course, thiosulfate quench (Example 5); assay type: cell-based, porcine parvovirus (PPV); conditions: 200 mg PEP/ml
Experimental: The focus of this experiment was to measure the effect of increased PEP concentration on the efficiency of the inactivation procedure and to evaluate lower concentration ranges of BPL.
PPV virus stock (prepared using standard protocols (Arella et al., Physicochemical properties, production, and purification of parvoviruses. 1990, In Tijssen, P. (ed.), CRC handbook of parvoviruses. Boca Raton, Fla.: CRC Press, 11-30)) was diluted with water and this solution (containing 1.42×10^10 FFID50 PPV viruses) was used to suspend the 0.5 gram of PEP powder to yield a final concentration of 200 mg PEP/ml.
Tubes were incubated for one hour at 25° C. before the addition of BPL. BPL was added either directly to the PEP solution (for a final concentration of 0.4 vol. %) or it was first diluted ten and hundred times for final concentrations of 0.04 vol. % and 0.004 vol. %, respectively. After the addition of BPL, the solution was further mixed and incubated at 25° C. for a predetermined period (1, 2, 4, 6, or 8 hours). A sodium thiosulfate solution was freshly prepared on the day of each inactivation experiments. After the period expired for the BPL inactivation, sodium thiosulfate was added to the PEP solution, mixed intensively and incubated at least 6 hours at 4° C. to quench the excess BPL. After this step the infectivity titration experiments as described in U.S. Patent Publication No. 2009/0226414 were performed. All experiments were done using three parallel samples for each time point.

O=C1CCO1 [BPL, Beta-propiolactone]
Mean Infectivity ± SD (PPV [1]; 0.4% BPL, 30 min 25° C.): 2.63 ± 6.86 × 10^4 FFID50/g
PPV Titer reduction (PPV [1]; 0.4% BPL, 30 min 25° C.): 0.65 × 10^2 FFID50/g
Average Results per Sample (PPV [1]; 0.4% BPL, 30 min 25° C., experiments B1-B3): 2.32 × 10^4 FFID50/g and 2.15 × 10^4 FFID50/g and 3.42 × 10^4 FFID50/g
Results (PPV infectivity, single determinations) (PPV [1]; 0.4% BPL, 30 min 25° C., experiments B1-B3, 3 parallels each): 2.50 × 10^4 FFID50/g and 1.98 × 10^4 FFID50/g and 3.14 × 10^4 FFID50/g and 3.96 × 10^4 FFID50/g
Reduction of virus infectivity (PPV [1]; 0.4 vol % BPL, room temperature, 30 minutes): more than 60 times
Mean Infectivity ± SD (PPV [1]; 0.8% BPL, 30 min 25° C.): 5.25 ± 5.25 × 10^3 FFID50/g
PPV Titer reduction (PPV [1]; 0.8% BPL, 30 min 25° C.): 0.31 × 10^4 FFID50/g
Inactivation of PPV (PPV [1]; 0.8% BPL, room temperature, 30 minutes): three magnitudes of order
Detected PPV titer average (PPV [2]; 0.004% BPL, 1 hr at 25° C.): 8.13 × 10^9 FFID50/g
Log10 of inactivation (PPV [2]; 0.004% BPL, 1 hr at 25° C.): 0.4 Log10
Detected PPV titer average (PPV [2]; 0.004% BPL, 2 hr at 25° C.): 5.96 × 10^9 FFID50/g
Log10 of inactivation (PPV [2]; 0.004% BPL, 2 hr at 25° C.): 0.6 Log10
Detected PPV titer average (PPV [2]; 0.004% BPL, 4 hr at 25° C.): 5.86 × 10^9 FFID50/g
Log10 of inactivation (PPV [2]; 0.004% BPL, 4 hr at 25° C.): 0.58 Log10
Detected PPV titer average (PPV [2]; 0.004% BPL, 6 hr at 25° C.): 6.65 × 10^9 FFID50/g
Log10 of inactivation (PPV [2]; 0.004% BPL, 6 hr at 25° C.): 0.53 Log10
Detected PPV titer average (PPV [2]; 0.004% BPL, 8 hr at 25° C.): 6.68 × 10^9 FFID50/g
Log10 of inactivation (PPV [2]; 0.004% BPL, 8 hr at 25° C.): 0.53 Log10
Detected PPV titer average (PPV [2]; 0.04% BPL, 1 hr at 25° C.): 4.01 × 10^9 FFID50/g
Log10 of inactivation (PPV [2]; 0.04% BPL, 1 hr at 25° C.): 0.7 Log10
Detected PPV titer average (PPV [2]; 0.04% BPL, 2 hr at 25° C.): 2.06 × 10^9 FFID50/g
Log10 of inactivation (PPV [2]; 0.04% BPL, 2 hr at 25° C.): 1.0 Log10
Detected PPV titer average (PPV [2]; 0.04% BPL, 4 hr at 25° C.): 1.54 × 10^9 FFID50/g
Log10 of inactivation (PPV [2]; 0.04% BPL, 4 hr at 25° C.): 1.2 Log10
Detected PPV titer average (PPV [2]; 0.04% BPL, 6 hr at 25° C.): 7.66 × 10^8 FFID50/g
Log10 of inactivation (PPV [2]; 0.04% BPL, 6 hr at 25° C.): 1.5 Log10
Detected PPV titer average (PPV [2]; 0.04% BPL, 8 hr at 25° C.): 4.91 × 10^8 FFID50/g
Log10 of inactivation (PPV [2]; 0.04% BPL, 8 hr at 25° C.): 1.7 Log10
Detected PPV titer average (PPV [2]; 0.4% BPL, 1 hr at 25° C.): 3.06 × 10^7 FFID50/g
Log10 of inactivation (PPV [2]; 0.4% BPL, 1 hr at 25° C.): 2.8 Log10
Detected PPV titer average (PPV [2]; 0.4% BPL, 2 hr at 25° C.): 8.69 × 10^6 FFID50/g
Log10 of inactivation (PPV [2]; 0.4% BPL, 2 hr at 25° C.): 3.4 Log10
Detected PPV titer average (PPV [2]; 0.4% BPL, 4 hr at 25° C.): 2.13 × 10^6 FFID50/g
Log10 of inactivation (PPV [2]; 0.4% BPL, 4 hr at 25° C.): 4.0 Log10
Detected PPV titer average (PPV [2]; 0.4% BPL, 6 hr at 25° C.): 3.26 × 10^5 FFID50/g
Log10 of inactivation (PPV [2]; 0.4% BPL, 6 hr at 25° C.): 4.8 Log10
Detected PPV titer average (PPV [2]; 0.4% BPL, 8 hr at 25° C.): 1.69 × 10^5 FFID50/g
Log10 of inactivation (PPV [2]; 0.4% BPL, 8 hr at 25° C.): 5.1 Log10
